# In ChEMBL document CHEMBL3885881, “DrugMatrix”:
# Species: Rattus norvegicus
# Test: DrugMatrix - Regimen: Daily Repeat
# Assay type: toxicity, organism-based, Sprague-Dawley
# Set-up: regimen Daily Repeat, gender Male, age 6-8 weeks
# Conditions: in vivo, po, 0 mg/kg, route oral GAVAGE, dose level Control, vehicle 100 % SALINE; for ABSOLUTE BASOPHIL / ABSOLUTE EOSINOPHIL / ABSOLUTE LYMPHOCYTE / ABSOLUTE MONOCYTE / ABSOLUTE SEGMENTED NEUTROPHIL / BASOPHIL / EOSINOPHIL / ERYTHROCYTE COUNT / HEMATOCRIT / HEMOGLOBIN / LEUKOCYTE COUNT / LYMPHOCYTE / MEAN CORPUSCULAR HEMOGLOBIN / MEAN CORPUSCULAR HEMOGLOBIN CONCENTRATION / MEAN CORPUSCULAR VOLUME / MONOCYTE / NEUTROPHIL / NUCLEATED RED BLOOD CELLS / PLATELET COUNT: tissue Blood; for ALANINE AMINOTRANSFERASE / ALBUMIN / ALKALINE PHOSPHATASE / ASPARTATE AMINOTRANSFERASE / BLOOD UREA NITROGEN / CARBON DIOXIDE / CHLORIDE / CHOLESTEROL / CREATINE PHOSPHOKINASE / CREATININE / GLUCOSE / LACTATE DEHYDROGENASE / LIPASE / PHOSPHORUS / POTASSIUM / SODIUM / TOTAL BILIRUBIN / TOTAL PROTEIN / URIC ACID: tissue Plasma
compound,measurement,setting,value
NC(=O)C[S+]([O-])C(c1ccccc1)c1ccccc1 (stereo unspecified) [MODAFINIL],ABSOLUTE BASOPHIL,"72 h, time 3 day",0 CELLS/uL
same,ABSOLUTE EOSINOPHIL,"72 h, time 3 day",37 CELLS/uL
same,ABSOLUTE LYMPHOCYTE,"72 h, time 3 day",12359.33 CELLS/uL
same,ABSOLUTE MONOCYTE,"72 h, time 3 day",122.67 CELLS/uL
same,ABSOLUTE SEGMENTED NEUTROPHIL,"72 h, time 3 day",847.67 CELLS/uL
same,BASOPHIL,"72 h, time 3 day",0%
same,EOSINOPHIL,"72 h, time 3 day",0.33%
same,ERYTHROCYTE COUNT,"72 h, time 3 day",5.75 x10E6/uL
same,HEMATOCRIT,"72 h, time 3 day",36.08%
same,HEMOGLOBIN,"72 h, time 3 day",14.07 G/DL
same,LEUKOCYTE COUNT,"72 h, time 3 day",13.37 x10E3/uL
same,LYMPHOCYTE,"72 h, time 3 day",92.5%
same,MEAN CORPUSCULAR HEMOGLOBIN,"72 h, time 3 day",24.47 pg
same,MEAN CORPUSCULAR HEMOGLOBIN CONCENTRATION,"72 h, time 3 day",38.98 G/DL
same,MEAN CORPUSCULAR VOLUME,"72 h, time 3 day",62.78 fL
same,MONOCYTE,"72 h, time 3 day",1%
same,NEUTROPHIL,"72 h, time 3 day",6.17%
same,NUCLEATED RED BLOOD CELLS,"72 h, time 3 day",0.17 /100WBC
same,PLATELET COUNT,"72 h, time 3 day",1202.17 x10E3/uL
same,ALANINE AMINOTRANSFERASE,"72 h, time 3 day",50.67 u/L
same,ALBUMIN,"72 h, time 3 day",4.13 G/DL
same,ALKALINE PHOSPHATASE,"72 h, time 3 day",356.33 u/L
same,ASPARTATE AMINOTRANSFERASE,"72 h, time 3 day",78.17 u/L
same,BLOOD UREA NITROGEN,"72 h, time 3 day",14.17 mg/dL
same,CARBON DIOXIDE,"72 h, time 3 day",31.33 mmol/L
same,CHLORIDE,"72 h, time 3 day",98.5 MEQ/L
same,CHOLESTEROL,"72 h, time 3 day",76.5 mg/dL
same,CREATINE PHOSPHOKINASE,"72 h, time 3 day",248.33 u/L
same,CREATININE,"72 h, time 3 day",0.2 mg/dL
same,GLUCOSE,"72 h, time 3 day",144 mg/dL
same,LACTATE DEHYDROGENASE,"72 h, time 3 day",107 u/L
same,LIPASE,"72 h, time 3 day",9.83 u/L
same,PHOSPHORUS,"72 h, time 3 day",12.8 mg/dL
same,POTASSIUM,"72 h, time 3 day",6.75 MEQ/L
same,SODIUM,"72 h, time 3 day",142 MEQ/L
same,TOTAL BILIRUBIN,"72 h, time 3 day",0.18 mg/dL
same,TOTAL PROTEIN,"72 h, time 3 day",5.98 G/DL
same,URIC ACID,"72 h, time 3 day",1.42 mg/dL
same,ABSOLUTE BASOPHIL,"120 h, time 5 day",0 CELLS/uL
same,ABSOLUTE EOSINOPHIL,"120 h, time 5 day",0 CELLS/uL
same,ABSOLUTE LYMPHOCYTE,"120 h, time 5 day",8681.17 CELLS/uL
same,ABSOLUTE MONOCYTE,"120 h, time 5 day",79.83 CELLS/uL
same,ABSOLUTE SEGMENTED NEUTROPHIL,"120 h, time 5 day",689 CELLS/uL
same,BASOPHIL,"120 h, time 5 day",0%
same,EOSINOPHIL,"120 h, time 5 day",0%
same,ERYTHROCYTE COUNT,"120 h, time 5 day",5.49 x10E6/uL
same,HEMATOCRIT,"120 h, time 5 day",33.55%
same,HEMOGLOBIN,"120 h, time 5 day",13.1 G/DL
same,LEUKOCYTE COUNT,"120 h, time 5 day",9.45 x10E3/uL
same,LYMPHOCYTE,"120 h, time 5 day",92.33%
same,MEAN CORPUSCULAR HEMOGLOBIN,"120 h, time 5 day",23.92 pg
same,MEAN CORPUSCULAR HEMOGLOBIN CONCENTRATION,"120 h, time 5 day",39.07 G/DL
same,MEAN CORPUSCULAR VOLUME,"120 h, time 5 day",61.22 fL
same,MONOCYTE,"120 h, time 5 day",0.67%
same,NEUTROPHIL,"120 h, time 5 day",7%
same,NUCLEATED RED BLOOD CELLS,"120 h, time 5 day",0.17 /100WBC
same,PLATELET COUNT,"120 h, time 5 day",1001.17 x10E3/uL
same,ALANINE AMINOTRANSFERASE,"120 h, time 5 day",49.33 u/L
same,ALBUMIN,"120 h, time 5 day",4.07 G/DL
same,ALKALINE PHOSPHATASE,"120 h, time 5 day",300.33 u/L
same,ASPARTATE AMINOTRANSFERASE,"120 h, time 5 day",83.5 u/L
same,BLOOD UREA NITROGEN,"120 h, time 5 day",16 mg/dL
same,CARBON DIOXIDE,"120 h, time 5 day",29.67 mmol/L
same,CHLORIDE,"120 h, time 5 day",100.5 MEQ/L
same,CHOLESTEROL,"120 h, time 5 day",74.33 mg/dL
same,CREATINE PHOSPHOKINASE,"120 h, time 5 day",489.67 u/L
same,CREATININE,"120 h, time 5 day",0.35 mg/dL
same,GLUCOSE,"120 h, time 5 day",151 mg/dL
same,LACTATE DEHYDROGENASE,"120 h, time 5 day",133.67 u/L
same,LIPASE,"120 h, time 5 day",11.17 u/L
same,PHOSPHORUS,"120 h, time 5 day",10.88 mg/dL
same,POTASSIUM,"120 h, time 5 day",5.5 MEQ/L
same,SODIUM,"120 h, time 5 day",145.7 MEQ/L
same,TOTAL BILIRUBIN,"120 h, time 5 day",0.2 mg/dL
same,TOTAL PROTEIN,"120 h, time 5 day",6.05 G/DL
same,URIC ACID,"120 h, time 5 day",0.68 mg/dL
